Laboratory results taken from ChEMBL document CHEMBL1201862, “PubChem BioAssay data set” (2004).
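Values below derive from 48-hour exposures of cells grown in 96-well plates, with endpoints linearly interpolated between the two concentrations bracketing the appropriate inhibition level. The concentration for 50% growth inhibition is given as GI50.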 Active and inactive are the calls of the source. No stated cut-off is given here; in the data, active = GI50 up to about 1.1 µM and inactive = higher.

Assays:
Assay in all cases: inhibition of tumour cell growth, NCI panel, 48 h
[1] = test system: ACHN
[2] = test system: DLD-1
[3] = test system: DMS-114
[4] = test system: DMS-273
[5] = test system: HCC 2998
[6] = test system: HCT-116
[7] = test system: HL-60
[8] = test system: HOP-92
[9] = test system: K562
[10] = test system: M19-MEL
[11] = test system: MOLT-4
[12] = test system: NCI-H522
[13] = test system: OVCAR-3
[14] = test system: UO-31
[15] = test system: XF498
[16] = test system: 786-0
[17] = test system: BT-549
[18] = test system: MDA-MB-231
[19] = test system: MDA-N
[20] = test system: T47D

Measured: GI50

NCCCCNCCCNC(=O)c1nc(-c2csc(CCN)n2)sc1Cl
inactive: [1] > 100 µM | [2] > 100 µM | [3] > 100 µM | [4] > 100 µM | [5] > 100 µM | [6] > 100 µM | [7] > 100 µM | [8] > 100 µM | [9] 49.5 µM | [10] > 100 µM | [11] > 100 µM | [12] > 100 µM | [13] > 100 µM | [14] > 100 µM | [15] > 100 µM

COc1ccc2c(c1)CCc1c(CO)c(COC(=O)NC(C)C)n(C)c1-2
inactive: [16] 4.41 µM | [1] 3.83 µM | [2] 4.72 µM | [3] 2.59 µM | [4] 5.48 µM | [5] 8.85 µM | [6] 2.91 µM | [7] 1.59 µM | [8] 4.01 µM | [9] 2.41 µM | [10] 3.7 µM | [11] 2.68 µM | [12] 3.44 µM | [13] 8.51 µM | [14] 4.97 µM | [15] 7.83 µM

CN(C)C(=O)N(CCCl)N=O
inactive: [2] > 100 µM | [3] > 100 µM | [4] > 100 µM | [5] > 100 µM | [6] > 100 µM | [7] > 100 µM | [8] > 100 µM | [9] > 100 µM | [10] > 100 µM | [11] > 100 µM | [12] > 100 µM | [13] > 100 µM | [14] > 100 µM | [15] > 81.1 µM

O=c1[nH]c(=O)n([C@H]2CCCO2)cc1F
inactive: [16] 984 µM | [1] 977 µM | [17] 4000 µM | [2] 615 µM | [3] 673 µM | [4] 561 µM | [5] 89.7 µM | [6] 406 µM | [7] 644 µM | [8] > 3120 µM | [9] 968 µM | [10] 545 µM | [18] > 2720 µM | [19] 1200 µM | [11] 830 µM | [12] 769 µM | [13] 684 µM | [20] > 465 µM | [14] 869 µM | [15] 762 µM

O=c1ccc(=O)c2c(=O)c3ccccc3c(=O)c1=2
inactive: [16] 39.7 µM | [1] 60.3 µM | [2] 38.2 µM | [3] 29 µM | [4] 46.7 µM | [5] 54.7 µM | [6] 20.7 µM | [7] 17.2 µM | [8] > 100 µM | [9] > 100 µM | [10] 14.3 µM | [11] 23 µM | [12] 29.8 µM | [13] 21.2 µM | [14] 57.8 µM | [15] > 100 µM

CC(C)(C)/N=C/N1C=Cc2nc3ccccc3cc2C1
inactive: [16] > 100 µM | [1] > 100 µM | [2] 34.1 µM | [3] > 100 µM | [4] > 100 µM | [5] > 100 µM | [6] > 100 µM | [7] 75.7 µM | [8] > 100 µM | [9] > 100 µM | [10] > 100 µM | [11] > 100 µM | [12] > 100 µM | [13] > 100 µM | [14] > 100 µM | [15] > 100 µM

CC1CC(c2ccc(Cl)c(Cl)c2)=Nc2ccccc2S1 (configuration not stated)
inactive: [16] > 100 µM | [1] > 100 µM | [2] > 100 µM | [3] > 100 µM | [4] > 100 µM | [5] > 100 µM | [6] > 100 µM | [7] > 100 µM | [8] > 100 µM | [9] > 100 µM | [10] > 100 µM | [11] > 100 µM | [12] > 100 µM | [13] 44.5 µM | [14] > 100 µM | [15] > 100 µM

Cc1ccc(C2C(Cl)C(=O)N2NC(=O)c2ccc(N)cc2)cc1 (configuration not stated)
inactive: [16] 15.5 µM | [1] 31.9 µM | [2] 20.5 µM | [3] 10.2 µM | [4] 2.46 µM | [5] > 100 µM | [6] 15 µM | [7] 12.1 µM | [8] 14.5 µM | [9] 22.5 µM | [10] 19.8 µM | [11] 11.4 µM | [12] 12 µM | [13] 17.4 µM | [14] 30 µM | [15] 13.3 µM

O=C1OC(c2ccccc2)=N/C1=C/NC(Cc1c[nH]c2ccccc12)C(=O)O (configuration not stated)
inactive: [16] > 100 µM | [1] > 100 µM | [2] > 100 µM | [3] > 100 µM | [4] > 100 µM | [5] > 100 µM | [6] > 100 µM | [7] > 100 µM | [8] > 100 µM | [9] > 100 µM | [10] > 100 µM | [11] > 100 µM | [12] 68.4 µM | [13] > 100 µM | [14] > 100 µM | [15] > 100 µM

CN1c2ccccc2N(C)C23N(C)c4ccccc4N(C)C12N(C)c1ccccc1N3C (configuration not stated)
inactive: [16] > 100 µM | [1] > 100 µM | [2] > 100 µM | [3] > 100 µM | [4] > 100 µM | [5] > 100 µM | [6] > 100 µM | [7] > 100 µM | [8] 22.9 µM | [9] > 100 µM | [10] > 100 µM | [11] > 100 µM | [12] > 100 µM | [13] 33.6 µM | [14] > 100 µM | [15] 49.1 µM

COc1ccc2[nH]c3c(c2c1)[C@H]1CCC(C(C)(C)C)C[C@H]1[C@H]1C(=O)N(c2ccccc2)C(=O)[C@@H]31 (some centres not stated)
inactive: [16] 3.86 µM | [1] 4.17 µM | [2] 13.5 µM | [3] 21.9 µM | [4] 32.7 µM | [5] 36 µM | [6] 12.4 µM | [7] 39.4 µM | [8] 6.21 µM | [9] 20.6 µM | [10] 26.1 µM | [11] 20.9 µM | [12] 12.1 µM | [13] 23.3 µM | [14] 24 µM | [15] 9.91 µM

O=S1(=O)C(=C(c2ccccc2)c2ccccc2)S(=O)(=O)c2ccccc21
inactive: [2] > 100 µM | [3] 65.3 µM | [4] > 100 µM | [5] 97.1 µM | [6] > 100 µM | [7] > 100 µM | [8] 20.6 µM | [9] > 100 µM | [10] > 100 µM | [11] > 100 µM | [12] > 100 µM | [13] > 57.9 µM | [14] > 100 µM | [15] 24.7 µM

O=c1cc(-c2ccc(Cl)cc2)oc2cc(OCCCOc3ccc4c(=O)cc(-c5ccc(Cl)cc5)oc4c3)ccc12
inactive: [16] > 100 µM | [1] > 100 µM | [2] > 100 µM | [3] > 100 µM | [4] > 100 µM | [5] > 100 µM | [6] > 100 µM | [7] > 100 µM | [8] > 100 µM | [9] > 100 µM | [10] > 100 µM | [11] > 100 µM | [12] > 100 µM | [13] > 100 µM | [15] > 100 µM

C[n+]1c2ccccc2c(NC(CCCNC(=N)N)C(=O)O)c2ccccc21 (configuration not stated)
inactive: [16] > 100 µM | [1] > 100 µM | [2] > 100 µM | [3] > 100 µM | [4] > 100 µM | [5] > 100 µM | [6] > 100 µM | [7] 39.1 µM | [8] > 100 µM | [9] > 100 µM | [10] > 100 µM | [11] > 100 µM | [12] 99.1 µM | [13] > 100 µM | [14] 75.2 µM | [15] > 100 µM
